# Test results published in patent US7220824B1, “Integrin-mediated drug targeting” (Bayer Aktiengesellschaft, priority 2000, dated 2007).
# Like-named read-outs stand apart in the source and are kept apart here.
# Tests used:
# HT 29 = test: Growth inhibition test (MTT), cytotoxic action on tumour cell lines; type: cell-based; conditions: Homo sapiens, HT-29, 144 h, read-out: IC50 values of the cytotoxic action on tumour cell lines, HT 29
# Experimental: (§1) The human large intestine cell lines SW 480 and HT29 (ATCC No. CCL 228 and HTB38), the human breast cell lines MDA-MB 231, MCF-7 and BT20 (ATCC No. HTB-, 26, 22 and 23) and the mouse melanoma cell line B16F 10 (CRL 6475) were grown to confluence in Roux dishes in RPMI 1640 medium with addition of 10% FCS. They were then trypsinized and taken up in RPMI plus 10% FCS to a cell count of 50,000 cells or, for B16F10, 20,000 cells per ml. 100 μl of cell suspension/well were added to a 96 microwell plate and incubated at 37° C. for 1 day in a CO2 incubator. A further 100 μl of RPMI medium and 1 μl of DMSO were then added with the test substances. The growth was checked after day 6. For this, 25 μl of MTT solution (3-(4,5-dimethylthiazol-2-yl)-2,5-diphenyltetrazolium bromide) was added to each well at a starting concentration of 5 mg/ml of H2O. The plate was incubated at 37° C. for 5 hours in a CO2 incubator. The medium was then aspirated and 100 μl of i-propanol/well were added. After shaking with 100 μl of H2O for 30 min, the extinction was measured at 595-nm using a Multiplate Reader (BIO-RAD 3550-UV).
# (§2) The cytostatic action is indicated in Table 2 as an IC50 value, in each case for the individual cell lines.
# MDA-MB 231 = test: as above; type: cell-based; conditions: Homo sapiens, MDA-MB-231, 144 h, read-out: IC50 values of the cytotoxic action on tumour cell lines, MDA-MB 231
# Experimental: as §1, §2
# BT20 = test: as above; type: cell-based; conditions: Homo sapiens, BT-20, 144 h, read-out: IC50 values of the cytotoxic action on tumour cell lines, BT20
# Experimental: as §1, §2
# SW480 = test: as above; type: cell-based; conditions: Homo sapiens, SW480, 144 h, read-out: IC50 values of the cytotoxic action on tumour cell lines, SW480
# Experimental: as §1, §2
# MCF7 = test: as above; type: cell-based; conditions: Homo sapiens, MCF7, 144 h, read-out: IC50 values of the cytotoxic action on tumour cell lines, MCF7
# Experimental: as §1, §2
# [1] = molecular target: T1, αvβ3 receptor (αvβ3 from human A375 cells) (Homo sapiens, UniProt P05106+P06756); test: αvβ3 binding test (echistatin displacement, WGA SPA beads)
# T1 construct: αvβ3 from human A375 cells was purified analogously to a procedure which was described by Wong et al; endogenous in cells; host or cells: human A375 cells; the receptor was purified from the cells and used detergent-solubilised (n-octyl-glucopyranoside)
# Experimental: αvβ3 from human A375 cells was purified analogously to a procedure which was described by Wong et al. (Molecular Pharmacology, 50, 529–537 (1996)). In each case, 10 μl of αvβ3 (5 ng) in TBS pH 7.6, 2 mM CaCl2, 1 mM MgCl2, 1% n-octyl-glucopyranoside (Sigma); 10 μl of test substance in TBS pH 7.6, 0.1% DMSO and 45 μl of TBS pH 7.6, 2 mM CaCl2, 1 mM MgCl2, 1 mM MnCl2 were incubated at room temperature for 1 h. In each case, 25 μl of WGA SPA beads (Amersham, 4 mg/ml) and 10 μl of echistatin ([…], Amersham, chloramine-T labelled) were then added. After 16 hours at room temperature, the samples were measured in a scintillation measuring apparatus (Wallac 1450).
# B16F10 = test: Growth inhibition test (MTT), cytotoxic action on tumour cell lines; type: cell-based; conditions: Mus musculus, B16-F10, 144 h, read-out: IC50 values of the cytotoxic action on tumour cell lines, B16F10
# Experimental: as §1, §2
# [2] = αvβ3 purified from human A375 cells, labelled echistatin, read-out: IC50 values of the binding to the αvβ3 receptor
# T1 sequence (P06756 31-889 limits assumed): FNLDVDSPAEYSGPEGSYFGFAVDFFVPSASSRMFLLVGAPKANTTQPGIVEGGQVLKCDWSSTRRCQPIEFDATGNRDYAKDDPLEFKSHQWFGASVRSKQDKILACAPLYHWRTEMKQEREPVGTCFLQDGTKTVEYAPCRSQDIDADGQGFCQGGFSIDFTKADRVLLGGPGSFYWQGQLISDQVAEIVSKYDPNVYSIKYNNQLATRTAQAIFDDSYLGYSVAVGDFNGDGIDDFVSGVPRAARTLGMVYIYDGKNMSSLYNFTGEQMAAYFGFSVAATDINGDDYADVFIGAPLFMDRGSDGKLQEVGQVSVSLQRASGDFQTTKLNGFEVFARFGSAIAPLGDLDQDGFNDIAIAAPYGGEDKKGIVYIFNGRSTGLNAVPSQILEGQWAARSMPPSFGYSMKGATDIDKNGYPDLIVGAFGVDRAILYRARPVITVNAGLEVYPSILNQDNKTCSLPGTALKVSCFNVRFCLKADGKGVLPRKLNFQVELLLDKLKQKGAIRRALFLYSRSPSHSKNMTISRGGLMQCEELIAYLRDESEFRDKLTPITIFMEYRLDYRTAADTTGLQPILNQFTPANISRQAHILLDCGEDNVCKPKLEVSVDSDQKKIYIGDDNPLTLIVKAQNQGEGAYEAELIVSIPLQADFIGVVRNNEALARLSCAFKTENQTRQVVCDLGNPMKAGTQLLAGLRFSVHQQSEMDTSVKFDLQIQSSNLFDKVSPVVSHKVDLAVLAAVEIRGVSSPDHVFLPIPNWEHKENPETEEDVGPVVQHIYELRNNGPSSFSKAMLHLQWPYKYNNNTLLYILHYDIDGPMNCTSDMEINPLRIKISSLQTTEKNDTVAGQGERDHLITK
# T1 sequence (P06756 891-1048 partner limits assumed): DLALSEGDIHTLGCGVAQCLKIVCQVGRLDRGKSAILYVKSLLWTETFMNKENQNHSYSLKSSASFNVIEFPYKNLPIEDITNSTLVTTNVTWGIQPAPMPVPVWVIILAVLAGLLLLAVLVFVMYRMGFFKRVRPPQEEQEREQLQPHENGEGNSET
# T1 sequence (P05106 27-788): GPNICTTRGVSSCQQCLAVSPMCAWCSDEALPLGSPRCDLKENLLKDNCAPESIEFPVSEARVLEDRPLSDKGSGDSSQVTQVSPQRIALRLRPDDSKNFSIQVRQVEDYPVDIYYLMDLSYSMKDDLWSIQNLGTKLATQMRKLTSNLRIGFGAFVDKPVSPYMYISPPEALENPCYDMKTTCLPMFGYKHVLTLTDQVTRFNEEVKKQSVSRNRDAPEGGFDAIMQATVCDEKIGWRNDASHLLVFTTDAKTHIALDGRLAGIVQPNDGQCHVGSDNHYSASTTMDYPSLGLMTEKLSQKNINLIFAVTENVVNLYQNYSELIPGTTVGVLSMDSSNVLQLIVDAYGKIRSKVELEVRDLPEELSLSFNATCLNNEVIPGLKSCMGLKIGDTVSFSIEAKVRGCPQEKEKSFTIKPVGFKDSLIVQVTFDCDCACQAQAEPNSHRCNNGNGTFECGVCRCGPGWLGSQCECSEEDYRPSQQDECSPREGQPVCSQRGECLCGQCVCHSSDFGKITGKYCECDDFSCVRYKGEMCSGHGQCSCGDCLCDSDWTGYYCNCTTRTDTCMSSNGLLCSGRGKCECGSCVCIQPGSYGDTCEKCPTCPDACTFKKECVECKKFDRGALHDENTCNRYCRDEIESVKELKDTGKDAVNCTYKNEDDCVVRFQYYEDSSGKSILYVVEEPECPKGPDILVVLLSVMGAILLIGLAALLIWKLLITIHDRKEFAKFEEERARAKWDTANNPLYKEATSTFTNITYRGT
SMILES,IC50 (HT 29),IC50 (MDA-MB 231),IC50 (BT20),IC50 (SW480),IC50 (MCF7),"IC50 [1, 2]",IC50 (B16F10),IC50 [1]
CC[C@@]1(OC(=O)[C@@H](NC(=O)[C@H](CCCCNC(=O)CC(NC(=O)CNC(=O)c2cccc(NC(=N)N)c2)c2ccccc2)NC(=S)Nc2ccccc2)C(C)C)C(=O)OCc2c1cc1n(c2=O)Cc2cc3ccccc3nc2-1 (stereo partly shown) [Example 1.1],120 nM,100 nM,150 nM,200 nM,90 nM,873 nM,,
CC[C@@]1(OC(=O)[C@@H](NC(=O)CC[C@H](NC(=O)CC(NC(=O)CNC(=O)c2cccc(NC(=N)N)c2)c2ccccc2)C(=O)O)C(C)C)C(=O)OCc2c1cc1n(c2=O)Cc2cc3ccccc3nc2-1 (stereo partly shown) [Example 1.2],500 nM,20 nM,100 nM,600 nM,60 nM,679 nM,4000 nM,
CC[C@@]1(OC(=O)[C@@H](NC(=O)[C@H](CCCCN)NC(=S)Nc2cccc(C(=O)NCC(=O)NC(CC(=O)O)c3ccccc3)c2)C(C)C)C(=O)OCc2c1cc1n(c2=O)Cc2cc3ccccc3nc2-1 (stereo partly shown) [Example 2.1],90 nM,60 nM,100 nM,150 nM,70 nM,1450 nM,400 nM,
CC[C@@]1(OC(=O)[C@@H](NC(=O)[C@H](CCC(=O)O)NC(=S)Nc2cccc(C(=O)NCC(=O)NC(CC(=O)O)c3ccccc3)c2)C(C)C)C(=O)OCc2c1cc1n(c2=O)Cc2cc3ccccc3nc2-1 (stereo partly shown) [Example 2.2],300 nM,300 nM,400 nM,500 nM,300 nM,1500 nM,,
CC[C@@]1(OC(=O)[C@@H](NC(=O)[C@H](Cc2c[nH]cn2)NC(=S)Nc2cccc(S(=O)(=O)Nc3cccc(C(CC(=O)O)NS(=O)(=O)c4ccccc4)c3)c2)C(C)C)C(=O)OCc2c1cc1n(c2=O)Cc2cc3ccccc3nc2-1 (stereo partly shown) [Example 2.3],70 nM,20 nM,80 nM,120 nM,60 nM,,,697 nM
CC[C@@]1(OC(=O)C(NC(=O)C(Cc2cnc[nH]2)NC(=S)Nc2cccc(-c3ccc(C[C@H](NS(=O)(=O)CC45CCC(CC4=O)C5(C)C)C(=O)O)cc3)c2)C(C)C)C(=O)OCc2c1cc1n(c2=O)Cc2cc3ccccc3nc2-1 (stereo partly shown) [Example 2.4],300 nM,400 nM,1500 nM,400 nM,800 nM,110 nM,500 nM,
CC[C@@]1(OC(=O)C(NC(=O)C(CCCCN)NC(=S)Nc2cccc(-c3ccc(C[C@H](NS(=O)(=O)CC45CCC(CC4=O)C5(C)C)C(=O)O)cc3)c2)C(C)C)C(=O)OCc2c1cc1n(c2=O)Cc2cc3ccccc3nc2-1 (stereo partly shown) [Example 2.5],300 nM,300 nM,400 nM,200 nM,300 nM,190 nM,400 nM,
CC[C@@]1(OC(=O)[C@@H](NC(=O)[C@H](CCCCNC(=O)OCC2c3ccccc3-c3ccccc32)NC(=O)Nc2cccc(-c3ccc(C[C@H](NS(=O)(=O)CC45CCC(CC4=O)C5(C)C)C(=O)O)cc3)c2)C(C)C)C(=O)OCc2c1cc1n(c2=O)Cc2cc3ccccc3nc2-1 (stereo partly shown) [Example 2.6],3000 nM,3000 nM,9000 nM,3000 nM,5000 nM,,10000 nM,239 nM
CC[C@@]1(OC(=O)[C@@H](NC(=O)[C@H](Cc2cnc[nH]2)NC(=O)Nc2cccc(-c3ccc(C[C@H](NS(=O)(=O)CC45CCC(CC4=O)C5(C)C)C(=O)O)cc3)c2)C(C)C)C(=O)OCc2c1cc1n(c2=O)Cc2cc3ccccc3nc2-1 (stereo partly shown) [Example 2.7],600 nM,900 nM,5000 nM,900 nM,800 nM,,3000 nM,86 nM
CC[C@@]1(OC(=O)[C@@H](NC(=O)Nc2cccc(-c3ccc(C[C@H](NS(=O)(=O)CC45CCC(CC4=O)C5(C)C)C(=O)O)cc3)c2)C(C)C)C(=O)OCc2c1cc1n(c2=O)Cc2cc3ccccc3nc2-1 (stereo partly shown) [Example 2.8],10 nM,15 nM,9 nM,20 nM,10 nM,83 nM,200 nM,
CC[C@@]1(OC(=O)[C@@H](NC(=O)[C@H](CCCCNC(=O)OCC2c3ccccc3-c3ccccc32)NC(=O)Nc2cccc(-c3cccc(S(=O)(=O)NC(CC(=O)O)c4ccccc4)c3)c2)C(C)C)C(=O)OCc2c1cc1n(c2=O)Cc2cc3ccccc3nc2-1 (stereo partly shown) [Example 2.9],700 nM,700 nM,1500 nM,1000 nM,300 nM,,300 nM,236 nM
CC[C@@]1(OC(=O)[C@@H](NC(=O)[C@H](Cc2c[nH]cn2)NC(=O)Nc2cccc(-c3cccc(S(=O)(=O)NC(CC(=O)O)c4ccccc4)c3)c2)C(C)C)C(=O)OCc2c1cc1n(c2=O)Cc2cc3ccccc3nc2-1 (stereo partly shown) [Example 2.10],700 nM,400 nM,1000 nM,1000 nM,1500 nM,101 nM,2000 nM,
CCC1(OC(=O)[C@@H](NC(=O)[C@H](Cc2c[nH]cn2)NC(=O)Nc2cccc(-c3ccc(S(=O)(=O)NC(CC(=O)O)c4ccccc4)cc3)c2)C(C)C)C(=O)OCc2c1cc1n(c2=O)Cc2cc3ccccc3nc2-1 (stereo partly shown) [Example 2.11],400 nM,600 nM,400 nM,600 nM,500 nM,197 nM,800 nM,
CCC1(OC(=O)[C@@H](NC(=O)Nc2cccc(-c3ccc(S(=O)(=O)NC(CC(=O)O)c4ccccc4)cc3)c2)C(C)C)C(=O)OCc2c1cc1n(c2=O)Cc2cc3ccccc3nc2-1 (stereo partly shown) [Example 2.12],9 nM,10 nM,8 nM,20 nM,10 nM,127 nM,20 nM,
CC[C@@]1(OC(=O)[C@@H](NC(=O)Nc2cccc(-c3cccc(S(=O)(=O)NC(CC(=O)O)c4ccccc4)c3)c2)C(C)C)C(=O)OCc2c1cc1n(c2=O)Cc2cc3ccccc3nc2-1 (stereo partly shown) [Example 2.13],15 nM,20 nM,5 nM,15 nM,10 nM,97 nM,20 nM,
CC[C@@]1(OC(=O)[C@@H](NC(=O)[C@H](CCCCNC(=O)OCC2c3ccccc3-c3ccccc32)NC(=O)Nc2cccc(-c3ccc(S(=O)(=O)NC(CC(=O)O)c4ccccc4)cc3)c2)C(C)C)C(=O)OCc2c1cc1n(c2=O)Cc2cc3ccccc3nc2-1 (stereo partly shown) [Example 2.14],300 nM,300 nM,200 nM,300 nM,150 nM,,25 nM,84 nM
CC[C@@]1(OC(=O)[C@@H](NC(=O)[C@H](Cc2c[nH]cn2)NC(=S)Nc2ccc(C(=O)NC(CC(=O)O)c3cccc(NS(=O)(=O)c4cccc(NC(=N)N)c4)c3)cc2)C(C)C)C(=O)OCc2c1cc1n(c2=O)Cc2cc3ccccc3nc2-1 (stereo partly shown) [Example 3.3],90 nM,100 nM,150 nM,300 nM,100 nM,,,45 nM
CC[C@@]1(O)C(=O)OCc2c1cc1n(c2=O)Cc2cc3c(NC(=S)NC(CC(=O)O)c4cccc(NS(=O)(=O)c5cccc(NC(=N)N)c5)c4)cccc3nc2-1 (stereo partly shown) [Example 3.17],600 nM,3000 nM,5000 nM,800 nM,,66 nM,5000 nM,
